Reference: ChEMBL document CHEMBL5360537, “From lead to clinic: A review of the structural design of P2X7R antagonists” (Eur J Med Chem, 2023)

Columns and labels:
P2X purinoceptor 7 [1] = molecular target: T1, P2X purinoceptor 7 (Homo sapiens, UniProt Q99572); assay: Inhibition of human P2X7 receptor transfected in HEK293 cells by calcium influx assay; type: cell-based
T1 sequence (Q99572 whole entry): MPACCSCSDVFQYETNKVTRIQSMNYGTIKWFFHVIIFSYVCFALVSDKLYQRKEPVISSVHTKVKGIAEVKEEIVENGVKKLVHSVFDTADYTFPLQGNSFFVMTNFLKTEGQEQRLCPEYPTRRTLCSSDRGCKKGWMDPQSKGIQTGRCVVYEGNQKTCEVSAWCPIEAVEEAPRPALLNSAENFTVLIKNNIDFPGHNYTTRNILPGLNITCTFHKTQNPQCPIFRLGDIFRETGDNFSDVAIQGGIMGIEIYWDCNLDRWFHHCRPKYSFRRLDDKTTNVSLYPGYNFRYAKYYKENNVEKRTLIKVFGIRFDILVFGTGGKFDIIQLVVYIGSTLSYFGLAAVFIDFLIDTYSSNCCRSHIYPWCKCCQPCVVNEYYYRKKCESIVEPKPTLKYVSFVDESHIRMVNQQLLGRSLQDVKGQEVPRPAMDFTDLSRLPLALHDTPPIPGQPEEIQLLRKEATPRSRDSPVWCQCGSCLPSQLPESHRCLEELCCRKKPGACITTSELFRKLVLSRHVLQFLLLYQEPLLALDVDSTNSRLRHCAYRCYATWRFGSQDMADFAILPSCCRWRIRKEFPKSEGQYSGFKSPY

P2X purinoceptor 7 [2] = molecular target: T2, P2X purinoceptor 7 (Rattus norvegicus, UniProt Q64663); assay: Inhibition of rat P2X7 receptor transfected in HEK293 cells by calcium influx assay; type: cell-based
T2 sequence (Q64663 whole entry): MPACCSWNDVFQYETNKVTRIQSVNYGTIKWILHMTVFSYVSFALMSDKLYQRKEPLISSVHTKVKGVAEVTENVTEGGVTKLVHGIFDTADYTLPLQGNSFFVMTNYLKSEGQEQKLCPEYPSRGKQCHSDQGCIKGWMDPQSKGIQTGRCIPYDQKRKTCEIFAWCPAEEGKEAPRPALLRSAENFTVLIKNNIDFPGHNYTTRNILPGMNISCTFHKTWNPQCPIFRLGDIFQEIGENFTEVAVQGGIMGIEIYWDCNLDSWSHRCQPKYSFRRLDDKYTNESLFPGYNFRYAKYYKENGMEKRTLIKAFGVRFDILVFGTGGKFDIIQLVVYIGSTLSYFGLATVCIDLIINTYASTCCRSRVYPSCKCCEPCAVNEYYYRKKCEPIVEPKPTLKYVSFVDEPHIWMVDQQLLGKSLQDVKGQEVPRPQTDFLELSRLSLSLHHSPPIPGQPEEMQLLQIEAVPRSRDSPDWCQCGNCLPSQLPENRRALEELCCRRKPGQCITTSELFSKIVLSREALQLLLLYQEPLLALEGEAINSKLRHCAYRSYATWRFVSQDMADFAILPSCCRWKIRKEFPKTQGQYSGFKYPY

[3] = Half life in Han Wistar rat plasma at 1 mg/kg, iv measured upto 6 hrs by liquid chromatography tandem mass spectrometry; type: ADME, organism-based
[4] = Half life in Han Wistar rat Brain at 1 mg/kg, iv measured upto 6 hrs by liquid chromatography tandem mass spectrometry; type: ADME, organism-based
[5] = AUC(0 to 6 hrs) in Han Wistar rat plasma at 1 mg/kg, iv measured upto 6 hrs by liquid chromatography tandem mass spectrometry; type: ADME, organism-based; design: time < 6 hrs, dose 1 mg/kg, route iv
[6] = AUC(0 to 6 hrs) in Han Wistar rat Brain at 1 mg/kg, iv measured upto 6 hrs by liquid chromatography tandem mass spectrometry; type: ADME, organism-based; design: time < 6 hrs, dose 1 mg/kg, route iv
[7] = Half life in human liver microsomes; type: ADME, Microsome
P2X purinoceptor 7 [8] = molecular target: T1, P2X purinoceptor 7; assay: Antagonist activity at P2X7 in human THP-1 cells; type: cell-based
P2X purinoceptor 7 [9] = molecular target: T1, P2X purinoceptor 7; assay: Antagonist activity at recombinant human P2X7 receptor expressed in 1321N1 cells measured after 30 mins by fluorescence based calcium flux assay; type: cell-based
P2X purinoceptor 7 [10] = molecular target: T1, P2X purinoceptor 7; assay: Antagonist activity at P2X7 receptor in human THP-1 cells assessed as reduction in ATP induced IL-1 beta release; type: cell-based
P2X purinoceptor 7 [11] = molecular target: T3, P2X purinoceptor 7 (Mus musculus, UniProt Q9Z1M0); assay: Antagonist activity at P2X7 receptor in mouse Peritoneal macrophage cells assessed as reduction in ATP induced IL-1 beta release; type: cell-based
T3 sequence (Q9Z1M0 whole entry): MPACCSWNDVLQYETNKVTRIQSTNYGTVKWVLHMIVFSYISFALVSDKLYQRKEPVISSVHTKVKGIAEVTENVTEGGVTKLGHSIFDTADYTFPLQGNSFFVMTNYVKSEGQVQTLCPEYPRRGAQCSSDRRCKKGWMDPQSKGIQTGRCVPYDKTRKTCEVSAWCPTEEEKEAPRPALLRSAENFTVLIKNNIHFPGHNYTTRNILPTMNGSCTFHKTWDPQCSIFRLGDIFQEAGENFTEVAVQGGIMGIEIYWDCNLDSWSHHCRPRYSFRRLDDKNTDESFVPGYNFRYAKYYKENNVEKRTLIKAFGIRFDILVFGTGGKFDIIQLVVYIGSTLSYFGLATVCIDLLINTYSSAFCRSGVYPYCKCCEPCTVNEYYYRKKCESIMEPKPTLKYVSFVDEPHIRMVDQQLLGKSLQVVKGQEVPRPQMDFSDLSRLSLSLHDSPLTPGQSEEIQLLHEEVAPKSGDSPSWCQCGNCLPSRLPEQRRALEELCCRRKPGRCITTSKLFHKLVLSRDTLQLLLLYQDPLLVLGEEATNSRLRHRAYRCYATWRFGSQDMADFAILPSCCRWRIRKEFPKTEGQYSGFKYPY

[12] = molecular target: T4, P2X purinoceptor 7 (Mus musculus) (UniProt Q9Z1M0); assay: Antagonist activity at P2X7 receptor in mouse Peritoneal macrophage cells assessed as ATP induced dye uptake at 10 uM relative to control; type: cell-based; conditions: filed as antagonist
T4 sequence (whole entry): T3 sequence (Q9Z1M0 whole entry)

Mus musculus = assay: Antiinflammatory activity in ATP induced mouse paw edema model; type: functional; conditions: read-out: ID50 (the source's name)
P2X purinoceptor 7 [13] = molecular target: T3, P2X purinoceptor 7; assay: Inhibition of mouse P2X7 receptor expressed in xenopus laevis Oocyte cells by TEVC analysis; type: cell-based
P2X purinoceptor 7 [14] = molecular target: T1, P2X purinoceptor 7; assay: Inhibition of human P2X7 receptor in HEK cells by fluorescence based calcium influx assay; type: cell-based
P2X purinoceptor 7 [15] = molecular target: T1, P2X purinoceptor 7; assay: Inhibition of human P2X7 receptor expressed in HEK293 cells incubated for 5 mins followed by Bz-ATP addition measured after 3 mins by fluorescence based assay; type: cell-based
P2X purinoceptor 7 [16] = molecular target: T3, P2X purinoceptor 7; assay: Inhibition of mouse P2X7 receptor expressed in HEK293 cells incubated for 5 mins followed by Bz-ATP addition measured after 3 mins by fluorescence based assay; type: cell-based

O=C1CCC(C(=O)NCC2CCCCCCC2)c2cccnc21 (centres undefined)
IC50 (P2X purinoceptor 7 [1]): > 1 µM | IC50 (P2X purinoceptor 7 [2]): > 1 µM

COc1ccc(Cl)c(C(=O)NCC23CC4CC(CC(C4)C2)C3)c1
half-life [3]: 28.2 min | half-life [4]: 9.6 min | AUC(0-t) at 6 h [5]: 186 ng·h/mL | AUC(0-t) at 6 h [6]: 221 ng·h/mL

Cc1ccc2c(=O)n(C(C)CO)ccc2c1NC(=O)Cc1ccc(C(F)(F)F)c(F)c1 (centres undefined)
half-life [7]: 55.8 min | IC50 (P2X purinoceptor 7 [8]): 0.0093 µM

COc1ccc(Cl)c(C(=O)NCC23CC4(F)CC(F)(CC(F)(C4)C2)C3)c1
half-life [3]: 103 min | half-life [4]: 75.6 min | AUC(0-t) at 6 h [5]: 385 ng·h/mL | AUC(0-t) at 6 h [6]: 380 ng·h/mL

O=C(OCC1c2ncn(-c3ccccc3)c2CCN1C(=O)c1cccc(C(F)(F)F)c1Cl)c1cccc(C(F)(F)F)c1Cl (centres undefined)
IC50 (P2X purinoceptor 7 [9]): 0.0031 µM

CC1=C(C(c2ccc(Cl)cc2)n2cc(COCc3ccco3)nn2)C(=O)c2ccccc2C1=O (centres undefined)
IC50 (P2X purinoceptor 7 [10]): 1.1 µM | IC50 (P2X purinoceptor 7 [11]): 1.5 µM | inhibition [12]: 60% | ED50 (Mus musculus): 16 mg/kg

Cc1ccc(C2(CNC(=O)c3cc(CO[N+](=O)[O-])ccc3Cl)CCCCC2)cc1
IC50 (P2X purinoceptor 7 [13]): 1.43 µM

COc1ccc(Cl)c(C(=O)NCC23CC4CC(CC(F)(C4)C2)C3)c1
IC50 (P2X purinoceptor 7 [14]): 0.017 µM

O=C(NCC(c1scnc1C(F)F)N1CCC(Oc2cccc(Cl)n2)CC1)c1c(F)cccc1Cl (centres undefined)
IC50 (P2X purinoceptor 7 [15]): 0.0111 µM | IC50 (P2X purinoceptor 7 [16]): 0.0134 µM

O=C(NCc1cccc(C(F)(F)F)c1Cl)[C@@]1(O)CCC(O)c2ncccc21 (some centres undefined)
IC50 (P2X purinoceptor 7 [1]): 0.101 µM | IC50 (P2X purinoceptor 7 [2]): < 1 µM

O=C(NCC1(c2ccc(CO[N+](=O)[O-])cc2)CCCCC1)c1ccccc1Cl
IC50 (P2X purinoceptor 7 [13]): 0.39 µM
